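Assay format: 96-well plates, 48-hour exposure. GI50 is the concentration that inhibits growth by half. TGI denotes the concentration required for complete inhibition of growth.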
Columns and labels:
Assay in all cases: inhibition of tumour cell growth, NCI panel, 48 h
SK-MEL-5 melanoma = system: SK-MEL-5 melanoma
MDA-MB-435 = system: MDA-MB-435
LOX IMVI melanoma = system: LOX IMVI melanoma
SK-MEL-2 melanoma = system: SK-MEL-2 melanoma
HS 578T breast = system: HS 578T breast

| Compound | TGI (SK-MEL-5 melanoma) [µM] | TGI (MDA-MB-435) [µM] | TGI (LOX IMVI melanoma) [µM] | TGI (SK-MEL-2 melanoma) [µM] | TGI (HS 578T breast) [µM] | GI50 (SK-MEL-2 melanoma) [nM] | GI50 (SK-MEL-5 melanoma) [nM] | GI50 (MDA-MB-435) [nM] | GI50 (LOX IMVI melanoma) [nM] |
| --- | --- | --- | --- | --- | --- | --- | --- | --- | --- |
| Nc1ccc(-c2nc3ccccc3s2)cc1Cl | > 100 | > 100 | > 100 | > 100 | > 100 |  |  |  |  |
| Cc1ccc(S(=O)(=O)NC(CCC(=O)NNc2ccccc2)C(=O)NNc2ccccc2)cc1 (stereo not given) | > 100 | > 100 | > 100 | 83.2 | > 100 |  |  |  |  |
| Cc1cc(-n2nnc(C(=O)O)c2-c2ccccc2)c2ccc(Cl)cc2n1 | > 100 | > 100 | > 100 | > 100 | > 100 |  |  |  |  |
| NCCCN(CCCCN(CCCN)C(=O)OCc1ccccc1)C(=O)OCc1ccccc1 | > 100 | > 100 | > 100 | > 100 | > 100 |  |  |  |  |
| O=C(c1ccccc1)c1ccc2nc(-c3c(Cl)c(Cl)c(Cl)c(Cl)c3-c3nnc(-c4ccccc4)o3)[nH]c2c1 | 54.1 | > 100 | > 100 | > 100 | > 100 |  |  |  |  |
| COC(=O)[C@H](Cc1c[nH]c2ccccc12)NP(=O)(OCCC#N)OCC1OC(n2cc(C)c(=O)[nH]c2=O)CC1N=[N+]=[N-] (stereo not given in full) | > 100 | > 100 | > 100 | > 100 |  |  |  |  |  |
| CC1CC/C(=C\c2ccc(F)cc2)C2=C1C(c1ccc(F)cc1)N1C(=O)CSC1=N2 (stereo not given) | > 100 | > 100 | > 100 | > 100 | > 100 |  |  |  |  |
| Cc1cc(S(=O)(=O)Nc2nc3ncccc3[nH]2)c(S)cc1Cl | > 100 | > 100 | > 100 |  | > 100 |  |  |  |  |
| O=C1CCCNn2c(nc3ncccc3c2=O)N1 | > 100 | > 100 | > 100 | > 100 | > 100 |  |  |  |  |
| COC(=O)C1=C(OC(=O)/C(=C/c2ccccc2)c2ccc(OC)cc2)C(C(=O)OC)[C@@]2(O)[C@@H](C(=O)OC)[C@H](C)C[C@@H]1[C@@H]2C(=O)OC (stereo not given in full) | > 100 | > 100 | > 100 | > 100 | 99.3 |  |  |  |  |
| FC(F)(F)c1cc(N(C2c3ccccc3C=Cc3ccccc32)P(Cl)Cl)cc(C(F)(F)F)c1 | 32.7 | 64.9 | 36.1 | 37 | 79.5 |  |  |  |  |
| Cc1ccc(S(=O)(=O)NC(=O)NC(Cc2ccc(O)cc2)C(=O)O)cc1 (stereo not given) | > 100 |  | > 100 | > 100 | > 100 |  |  |  |  |
| O=P1(N2CCOCC2)OCCO1 | > 100 | > 100 | > 100 |  | > 100 |  |  |  |  |
| ClC(Cl)(Cl)C1CCOC1n1nnc2ccccc21 (stereo not given) | > 100 | > 100 |  | > 100 | > 100 |  |  |  |  |
| C1=C(c2ccccc2)C(N2CCOCC2)Oc2ccccc21 (stereo not given) | > 100 | > 100 | > 100 |  | > 100 |  |  |  |  |
| O=c1[nH]c(=O)n(C2CC(O)C(CO)O2)cc1Oc1ccccc1 (stereo not given) | > 100 | > 100 | > 100 |  | > 100 |  |  |  |  |
| C(/C=N/NC1=NCCCCN1)=N\NC1=NCCCCN1 | > 100 | > 100 | > 100 |  | > 100 |  |  |  |  |
| COc1ccc(-n2c(=O)c3[nH]c(=S)[nH]c3n(-c3ccc(OC)cc3)c2=S)cc1 | > 100 | > 100 | > 100 | > 100 |  |  |  |  |  |
| CCOC(=O)c1ccc(Nc2nc3ccccc3nc2-c2cccs2)cc1 | > 100 | > 100 | 74.1 |  | > 100 |  |  |  |  |
| C1=NCCNCCNCCN=Cc2ccc(cc2)OCc2cccc(n2)COc2ccc1cc2 | > 100 | > 100 |  | > 100 | > 100 |  |  |  |  |
| Cc1c(CNc2ccc(C(=O)NC(CCCNC(=O)c3ccccc3C(=O)O)C(=O)O)cc2)cnc2nc(N)nc(N)c12 (stereo not given) |  |  |  |  |  | > 100000 |  |  |  |
| CNc1nnc(CCCCCCCCc2nnc(NC)o2)o1 | > 100 | > 100 | 38.5 | > 100 |  |  |  |  |  |
| Cc1cc2[nH]c3c(C#N)c(-c4ccccc4)c(N=Nc4ccc(F)cc4)c(=O)n3c2cc1C | > 100 | > 100 | > 100 | > 100 |  |  |  |  |  |
| Cn1nc2ccc(Nc3cc(=O)[nH]c4ccc5nn(C)nc5c34)cc2n1 | > 100 | > 100 |  | > 100 | > 100 |  |  |  |  |
| O=c1c2cc(C(F)(F)F)ccc2sc2c(NCCCNCCO)nc3ccccc3c12 | 3.01 | 3.04 | 2.7 | 3.75 |  | 1920 | 1620 | 1620 | 1350 |
| O=[N+]([O-])c1ccc(NN=C2CN3CCN(C2)c2ccccc23)c([N+](=O)[O-])c1 | > 100 | > 100 | > 100 |  | > 100 |  |  |  |  |
| O=C(COc1ccc(OCC(=O)N2C(=O)CC(=O)N(c3ccc(Cl)cc3)C2=S)cc1)N1C(=O)CC(=O)N(c2ccc(Cl)cc2)C1=S | > 100 | > 100 |  | > 100 |  |  |  |  |  |
| N#Cc1nc2cc(Cl)ccc2nc1N1CCN(c2ccc([N+](=O)[O-])cc2)CC1 | > 100 | > 100 |  |  | > 100 |  |  |  |  |

Reference: PubChem BioAssay (NCI)
